Test results published in publication PMC7312375, “A Novel, Pan-PDE Inhibitor Exerts Anti-Fibrotic Effects in Human Lung Fibroblasts via Inhibition of TGF-β Signaling and Activation of cAMP/PKA Signaling” (International Journal of Molecular Sciences, 2020).

Tests used:
[1] = target: T1, PDE4A (Homo sapiens, UniProt P27815); experiment: PDE-Glo assay, human recombinant PDE4A; assay type: biochemical; conditions: read-out: PDE-IC50 4A
T1 construct: purchased SignalChem
Experimental: Inhibitory activities of the investigated compounds against various subtypes of human recombinant (hr)PDEs, namely PDE1A, PDE1B, PDE1C, PDE3A, PDE3B, PDE4A, PDE4B, PDE4D, PDE7A, and PDE8A were assessed using a PDE-Glo^TM Assay Kit (Promega, Madison, WI, USA) according to the protocol provided by the manufacturer. Briefly, appropriate amounts of each enzyme (SignalChem, Richmond, B.C., Canada), diluted with PDE-Glo reaction buffer, were distributed on a 384-well plate (Thermo Scientific, Waltham, MA, USA). The investigated compounds were dissolved in DMSO, diluted with the same vehicle, and mixed with the reaction buffer at a v/v ratio of 1:5. Thereafter, 1 µL of these mixtures and 2.5 µL of the cAMP solution as a substrate were added. The final cAMP concentration was 0.05 µM. The samples were incubated for 10 min at 30 °C. Then, 2.5 µL of termination buffer and 2.5 µL of PDE-Glo detection solution were added to each well and incubated for 20 min. Finally, 10 µL of PDE-Glo kinase reagent was added, and luminescence was measured using the POLARstar Omega plate reader (BMG LABTECH, Ortenberg, Germany). Each sample was prepared in quadruplicate. The relative activities (A, %) of all samples were calculated from the following equation: A = [(LUsample − LUblank)/(LUcontrol − LUblank)]·100%; where LUcontrol is the luminescence of a control sample in the absence of a PDE inhibitor, LUsample is a luminescence of an investigated sample in the presence of an inhibitor, and LUblank is a luminescence of a sample in the absence of enzyme (activity = 0). IC50 values were estimated using non-linear regression.

[2] = system: TGF-β1-induced MRC-5 cells; experiment: Protein kinase A activity; assay type: cell-based, human; conditions: 10 µM 30 min, then TGF-β1 30 min
Experimental: Protein Kinase A (PKA) activity in MRC-5 cells was determined using a PKA Colorimetric Activity Kit (Invitrogen, Carlsbad, CA, USA) according to the manufacturer’s protocol. MRC-5 cells were seeded in standard culture medium, and after 48 h they were serum-starved for 2 h in HBSS, followed by the addition of study compounds (10 µM) and incubation for 30 min. Finally, TGF-β1 was administered, and the samples were incubated for an additional 30 min. Whole cell lysates were used in the assay. The amount of PKA was normalized to the total protein content in each sample. The experiments were run two times in duplicates.

[3] = system: TGF-β1-induced MRC-5 cells; experiment: Immunofluorescence, nuclear localization of p-CREB; assay type: cell-based, human; conditions: 10 µM
Experimental: For immunocytochemical labeling, MRC-5 cells were seeded on glass coverslips. Study compounds (10 µM) were added 1 h before TGF-β1 treatment, and analysis was performed after 1 h (p-Smad-2 and p-CREB detection) or 48 h (α-SMA detection) of incubation. Cells were fixed in methanol or 4% formaldehyde solution, permeabilized in 0.2% or 0.1% Triton X-100 solution (for p-Smad-2 and p-CREB or α-SMA, respectively). After incubation in blocking solution the following primary antibodies: rabbit polyclonal, anti-phospho-Smad-2 (Ser465, Ser467) antibody (#44-244G, Thermo Fisher Scientific, Waltham, MA, USA); rabbit polyclonal, anti-phospho-CREB1 (Ser133) antibody (#orb213775, Biorbyt, Cambridge, United Kingdom); mouse monoclonal, anti-α-SMA antibody (#MA5-11547, Thermo Fisher Scientific, Waltham, MA, USA) and secondary antibodies: goat anti-rabbit Alexa Fluor 546 conjugated antibody and goat anti-mouse Alexa Fluor 488 conjugated antibody (#A-11010 and #A-11001, respectively, Invitrogen, Carlsbad, CA, USA) were used. Nuclei were counterstained with Hoechst 33342 dye (Thermo Fisher Scientific, Waltham, MA, USA). Slides were mounted in ProLong™ Glass Antifade Mountant (Invitrogen, Carlsbad, CA, USA) and analyzed using Leica DMiL LED Fluo microscope (for α-SMA and p-CREB visualization, 40× objective) or Leica DMi8 with Thunder Imaging System (for p-Smad-2 visualization, 40× objective), all equipped with LAS-X Software (Leica Microsystems GmbH, Wetzlar, Germany). Experiments were run four times using five randomly selected fields of view, at the same fluorescent time exposure and in a blind-folded manner.

[4] = system: MRC-5 cells; experiment: Intracellular calcium measurements (Fluo-4); assay type: cell-based, human
Experimental: MRC-5 cells were briefly washed with NaHEPES buffer (NaHEPES buffer was prepared as follows: NaCl 140 mM, KCl 4.7 mM, HEPES 10 mM, MgCl2 1 mM, glucose 10 mM; pH 7.3) and then loaded with 1 µM Fluo-4 AM (Thermo Fisher Scientific, Waltham, MA, USA) for 1 h, 37 °C in NaHEPES. After the incubation, the cells were washed again with fresh NaHEPES and used for experiments in a flow chamber perfused with NaHEPES-based extracellular solution supplemented with 1 mM CaCl2. All experiments were carried out at room temperature using Zeiss LSM 880 confocal microscope (40× oil objective), excitation was set to 488 nm, and the emission was between 500 and 600 nm. Each series of images was recorded at 256 × 256-pixel resolution, two consecutive frames were averaged, and the interval between the averaged images was set at 2 s. Fluorescence signals were plotted as F/F0, where F0 was baseline fluorescence defined as the averaged signal from ten consecutive baseline images.

[5] = target: T2, TRPA1 (Homo sapiens, UniProt O75762); experiment: TRPA1 antagonist FLIPR assay (functional, HEK293 cell-based)
T2 construct: host or cells: HEK293
Experimental: The TRPA1 agonist and antagonist fluorescent imaging plate reader (FLIPR) Assay (functional, HEK293 cell-based) was performed at Eurofins Panlabs, Inc. (St. Charles, MO, USA). The compounds were prepared in assay buffer to the final dilutions 10 and 50 µM. In each experiment, the respective reference compounds were tested: allyl isothiocyanate (the agonist assay) and ruthenium red (the antagonist assay). The […] assays were conducted on a FLIPR^TETRA instrument where the test compounds, vehicle controls, and reference agonists or antagonists were added to the assay plate after a fluorescence baseline was established. The agonist or antagonist incubation during the assay was for a total of 180 s and was used to assess each compound’s ability to activate or inactivate TRPA1. All plates were subjected to appropriate baseline corrections. Once baseline corrections were processed, maximum fluorescence values were exported, and data was manipulated to calculate percentage activation or percentage inhibition. Results showing activity greater than 25% were considered to represent significant effects of test compounds. Experiments were run three times, […].

T1 sequence (P27815 whole entry): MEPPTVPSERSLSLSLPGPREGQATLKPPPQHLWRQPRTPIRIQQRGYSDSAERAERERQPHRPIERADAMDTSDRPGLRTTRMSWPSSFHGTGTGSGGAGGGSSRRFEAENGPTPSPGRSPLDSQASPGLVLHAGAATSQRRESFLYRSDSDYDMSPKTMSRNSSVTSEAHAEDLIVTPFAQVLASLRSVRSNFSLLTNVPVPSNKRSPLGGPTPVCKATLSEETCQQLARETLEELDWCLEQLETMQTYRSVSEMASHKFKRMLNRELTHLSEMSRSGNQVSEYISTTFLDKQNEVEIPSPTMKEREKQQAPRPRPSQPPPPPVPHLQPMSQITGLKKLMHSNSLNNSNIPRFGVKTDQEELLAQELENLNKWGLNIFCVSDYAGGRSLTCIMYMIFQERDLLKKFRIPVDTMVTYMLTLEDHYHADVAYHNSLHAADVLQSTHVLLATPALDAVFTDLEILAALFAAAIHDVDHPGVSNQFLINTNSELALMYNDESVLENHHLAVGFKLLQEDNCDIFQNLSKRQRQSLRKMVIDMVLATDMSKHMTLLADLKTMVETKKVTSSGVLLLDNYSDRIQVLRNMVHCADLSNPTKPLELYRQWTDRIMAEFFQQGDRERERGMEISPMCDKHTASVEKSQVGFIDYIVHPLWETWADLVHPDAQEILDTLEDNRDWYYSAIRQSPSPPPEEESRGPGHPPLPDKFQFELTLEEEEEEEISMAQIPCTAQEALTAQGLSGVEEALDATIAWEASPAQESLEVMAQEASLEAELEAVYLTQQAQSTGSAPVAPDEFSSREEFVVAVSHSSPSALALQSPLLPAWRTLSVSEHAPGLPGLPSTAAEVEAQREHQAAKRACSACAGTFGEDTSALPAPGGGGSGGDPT
T2 sequence (O75762 whole entry, species assumed): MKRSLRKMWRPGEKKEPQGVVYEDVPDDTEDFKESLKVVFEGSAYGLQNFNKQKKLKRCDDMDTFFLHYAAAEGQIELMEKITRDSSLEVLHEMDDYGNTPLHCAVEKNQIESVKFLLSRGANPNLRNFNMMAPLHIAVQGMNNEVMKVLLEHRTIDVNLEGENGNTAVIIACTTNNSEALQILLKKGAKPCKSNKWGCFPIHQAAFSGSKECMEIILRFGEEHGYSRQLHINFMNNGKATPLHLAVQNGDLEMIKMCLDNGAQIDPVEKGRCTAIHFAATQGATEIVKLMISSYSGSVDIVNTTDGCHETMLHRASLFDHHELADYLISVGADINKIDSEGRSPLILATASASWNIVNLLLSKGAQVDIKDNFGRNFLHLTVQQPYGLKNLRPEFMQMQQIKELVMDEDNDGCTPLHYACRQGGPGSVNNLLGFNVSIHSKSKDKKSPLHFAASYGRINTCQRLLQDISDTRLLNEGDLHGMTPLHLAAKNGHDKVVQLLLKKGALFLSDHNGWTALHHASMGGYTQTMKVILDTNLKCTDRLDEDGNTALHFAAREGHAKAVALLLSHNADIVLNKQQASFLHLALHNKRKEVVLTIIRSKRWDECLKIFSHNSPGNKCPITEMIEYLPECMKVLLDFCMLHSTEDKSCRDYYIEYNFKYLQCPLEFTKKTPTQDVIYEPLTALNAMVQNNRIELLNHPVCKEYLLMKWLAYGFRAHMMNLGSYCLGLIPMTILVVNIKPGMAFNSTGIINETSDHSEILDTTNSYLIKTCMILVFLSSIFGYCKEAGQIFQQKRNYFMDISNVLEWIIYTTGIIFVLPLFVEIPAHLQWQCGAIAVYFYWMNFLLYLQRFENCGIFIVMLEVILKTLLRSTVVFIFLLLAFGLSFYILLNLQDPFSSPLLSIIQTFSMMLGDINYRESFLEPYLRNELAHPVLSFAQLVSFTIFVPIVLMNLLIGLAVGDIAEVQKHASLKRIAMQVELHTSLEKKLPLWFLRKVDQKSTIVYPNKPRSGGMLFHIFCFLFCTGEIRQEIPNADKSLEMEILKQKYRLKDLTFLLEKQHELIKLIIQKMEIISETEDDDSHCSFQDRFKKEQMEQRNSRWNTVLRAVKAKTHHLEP

Row | SMILES | IC50 [1] [µM] | Protein kinase A activity in TGF-β1-induced fibroblasts [2] | elevation of fraction of MRC-5 cells with nuclear p-CREB localization [3] | effect on Ca2+ influx in lung fibroblasts ([4]; 10 µM, acute application) | TRPA1 Inhibition (% of control) ([5]; 10 µM) | TRPA1 Inhibition (% of control) ([5]; 50 µM) | increase in average Ca2+ response area over baseline ([4]; 10 µM, acute application) | Ca2+ responses under TRPA1 inhibition by HC-030031 ([4]; 145 10 µM in the presence of HC-030031 10 µM)
1 | COc1nc2c(c(=O)n(C)c(=O)n2C)n1CC(=O)Nc1ccc(C(C)(C)C)cc1 [Compound 869, N-(4-(tert-butyl)phenyl)-2-(8-methoxy-1,3-dimethyl-2,6-dioxo-1,2,3,6-tetrahydro-7H-purin-7-yl)acetamide] | 58.1 | no significant change | only a slight increase | inhibited Ca^2+ influx | 74.9 % of control | 98.7 % of control | – | –
2 | CC(C)Cn1c(=O)n(C)c(=O)c2[nH]cnc21 [IBMX, 3-isobutyl-1-methyl-3,7-dihydro-1H-purine-2,6-dione, reference compound] | 16.4 | slightly lower | only a slight increase | – | – | – | – | –
3 | CCCCOc1nc2c(c(=O)n(C)c(=O)n2C)n1CCCC(=O)Nc1cc(C(C)(C)C)ccc1O [Compound 145, 4-(8-butoxy-1,3-dimethyl-2,6-dioxo-1,2,3,6-tetrahydro-7H-purin-7-yl)-N-(5-(tert-butyl)-2-hydroxyphenyl)butanamide] | 1.59 | slightly lower | 70% | – | 12.3 % of control | 4.8 % of control | four-fold | failed to induce Ca^2+ responses
4 | Cn1c(=O)c2c(nc(NCc3ccco3)n2CCCC(=O)NN=Cc2ccc(O)cc2O)n(C)c1=O [Compound 832, N′-(2,4-dihydroxybenzylidene)-4-(8-((furan-2-ylmethyl)amino)-1,3-dimethyl-2,6-dioxo-1,2,3,6-tetrahydro-7H-purin-7-yl)butanehydrazide] | 4.75 | slightly lower | only a slight increase | – | 12.4 % of control | 8.8 % of control | two-fold | –
